Laboratory results as given in patent publication US6610270B1, “In vivo determination of metabolic function for use in therapy management” (Xanthus Life Sciences, Inc., priority 1998, dated 2003).
Read-outs that look alike come from different tables or passages of the source. Values belong to the compound of their own block, whether it stands above or below them. Square brackets hold non-standard residues; d marks the D form. Peptide text beside a SMILES is read from it. * marks the point of attachment. pNA = O=[N+]([O-])c1ccc(N*)cc1; Abu = CC[C@H](N)C(=O)O

What was measured:
bovine plasmin = molecular target: T1, bovine plasmin (Bos taurus, UniProt P06868); experiment: metaprobe hydrolysis in solution by purified plasmin; assay type: biochemical; settings: 1 WHO unit, pH 8.4, 37° C., 15 minutes
T1 construct: Freshly prepared solutions of bovine thrombin and bovine plasmin, from reconstituted lyophilized powders (Sigma); purchased Sigma
T1 sequence (P06868 584-812 limits assumed): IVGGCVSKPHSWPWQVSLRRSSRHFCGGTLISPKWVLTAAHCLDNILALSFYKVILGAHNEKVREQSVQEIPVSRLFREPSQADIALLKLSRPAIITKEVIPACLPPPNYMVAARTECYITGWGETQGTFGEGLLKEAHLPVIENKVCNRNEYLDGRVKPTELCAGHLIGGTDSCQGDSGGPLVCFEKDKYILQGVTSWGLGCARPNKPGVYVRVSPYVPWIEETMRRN
T1 sequence (P06868 104-583 limits assumed): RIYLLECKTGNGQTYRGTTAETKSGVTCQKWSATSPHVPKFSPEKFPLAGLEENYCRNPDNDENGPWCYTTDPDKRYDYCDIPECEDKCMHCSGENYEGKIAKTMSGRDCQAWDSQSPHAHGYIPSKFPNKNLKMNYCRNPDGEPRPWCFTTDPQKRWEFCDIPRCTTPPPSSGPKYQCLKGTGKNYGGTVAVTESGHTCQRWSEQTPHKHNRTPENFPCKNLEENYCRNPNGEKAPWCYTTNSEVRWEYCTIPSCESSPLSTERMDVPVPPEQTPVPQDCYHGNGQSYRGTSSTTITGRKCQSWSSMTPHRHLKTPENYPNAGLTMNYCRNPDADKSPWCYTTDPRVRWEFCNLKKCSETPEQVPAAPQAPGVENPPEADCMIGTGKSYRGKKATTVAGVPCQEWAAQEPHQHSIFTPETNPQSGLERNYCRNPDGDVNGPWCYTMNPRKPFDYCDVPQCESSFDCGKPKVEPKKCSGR
Protocol: (§1) The suitability of substrates I-VI was tested by the enzymatic assay protocol of Svendsen. Freshly prepared solutions of bovine thrombin and bovine plasmin, from reconstituted lyophilized powders (Sigma) were prepared in tris-imidazole buffer at pH 8.4 to deliver nominally 0.5 NIH unit per ml of thrombin and 1 WHO unit of plasmin. After preincubation for 5 minutes at 37° C., 0.25 ml of an 0.5 mMolar solution of each substrate in the same aqueous buffer was added and the separate reactions incubated for 15 minutes at the same temperature. Reaction was stopped by addition of 1:9 concentrated HCl:methanol. Concentration of the supernatant, ion exchange chromatography on Dowex-50, with 2N ammonia water eluant, as a further desalting and deproteinizing step, afforded the amino acid fraction resulting from the enzymatic hydrolysis of the metaprobes. The concentration of p-aminobenzoic[1-^13C] acid (with tetradeutero isotopolog as internal quantitation standard) and of L-2-aminobutyric[1-^13C] acid (with pentadeutero isotopolog as internal quantitation standard) were then analyzed by isotope dilution GC/MS using the N-trifluoroacetyl propyl ester derivatives and the total hydrolytic conversion expressed as […]

bovine thrombin = molecular target: T2, bovine thrombin (Bos taurus, UniProt P00735); experiment: metaprobe hydrolysis in solution by purified thrombin; assay type: biochemical; settings: 0.5 NIH unit per ml, pH 8.4, 37° C., 15 minutes
T2 construct: Freshly prepared solutions of bovine thrombin and bovine plasmin, from reconstituted lyophilized powders (Sigma); purchased Sigma
Protocol: as §1

[1] = system: nitric oxide synthase (NOS)
Description: These studies constitute part of a continuing series intended to extend the protocols initiated by Castillo et al. (1996) and depend on intravenous metaprobe administration and mass spectral analysis of the resulting analytes extracted from plasma.

DPPIV = molecular target: T3, DPPIV (Rattus norvegicus, UniProt P14740); experiment: plasma enzyme activity towards DPPIV substrates in septic rat model; assay type: biochemical, Sprague-Dawley rats
T3 construct: from tissue; host or cells: plasma of control and septic rats
T3 sequence (P14740 37-767 limits assumed): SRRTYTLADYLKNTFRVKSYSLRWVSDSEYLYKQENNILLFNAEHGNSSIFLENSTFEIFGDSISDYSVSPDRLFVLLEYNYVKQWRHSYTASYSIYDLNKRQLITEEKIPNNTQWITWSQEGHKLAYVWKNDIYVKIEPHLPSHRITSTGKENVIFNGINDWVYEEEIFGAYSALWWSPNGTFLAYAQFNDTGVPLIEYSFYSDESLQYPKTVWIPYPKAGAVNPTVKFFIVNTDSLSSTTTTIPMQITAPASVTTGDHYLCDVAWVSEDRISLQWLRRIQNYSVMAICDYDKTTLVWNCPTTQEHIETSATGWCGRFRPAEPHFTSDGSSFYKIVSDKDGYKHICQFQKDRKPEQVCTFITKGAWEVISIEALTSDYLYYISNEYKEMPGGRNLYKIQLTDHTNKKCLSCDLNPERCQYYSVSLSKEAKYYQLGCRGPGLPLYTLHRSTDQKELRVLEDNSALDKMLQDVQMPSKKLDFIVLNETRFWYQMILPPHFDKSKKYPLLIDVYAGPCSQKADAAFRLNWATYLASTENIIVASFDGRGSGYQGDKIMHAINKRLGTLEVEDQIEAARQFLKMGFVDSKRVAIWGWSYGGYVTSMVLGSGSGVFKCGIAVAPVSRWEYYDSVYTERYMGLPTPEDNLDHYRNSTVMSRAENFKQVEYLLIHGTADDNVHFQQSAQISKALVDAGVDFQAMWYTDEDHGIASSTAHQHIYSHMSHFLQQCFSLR
Protocol: (§2) Accordingly, ten male Sprague-Dawley rats, weighing approximately 300 gr., were injected with 3.5 mg/kg of GPA (prepared by sterile ultrafiltration in saline) and placed into metabolic cages for ^13CO2 collection (by alkaline trapping in seven 0.5 hour increments), in general as described by Vann et al. A blood draw of 0.4 ml was taken prior to the tracer administration to provide a baseline plasma titer for in vivo DPPIV activity. The following day, the rats were separated into a control panel and a test panel. Each of the three animals in the test panel was made septic (on Day 0) by intravenous (tail vein) adminstration of E. coli. Three control animals were sham injected with saline, and all were maintained in separate cages.
(§3) On day 2 and 6, and after a […], the administration of the “breath test” metaprobe and ^13CO2 collection was repeated. Equal aliquots of plasma were assayed for enzyme activity by spectrophotometry in two ways: a) using GP4NA (FIG. 16, structure I), a traditional and confirmatory approach, and b) using GPPaba (FIG. 16, structure III with R1 being the protonated free acid) by GC/MS quantitation of the p-aminobenzoic[1-^13C] acid (Paba, FIG. 16, structure IV) derived hydrolytically. The isotopic enrichment of the seven breath collections was measured by isotope ratio mass spectrometry, of the gas liberated after phosphoric acid protonation. The cumulative extent of metaprobe metabolism, as a per cent of dose taking into account the total CO2 production rate of each animal (Mohan et al.) was then calculated.
(§4) Also, over the 7 day experiment, the specific activity of plasma towards GP4NA in the control group averaged 29±6 nMol/min/ml while the septic titer rose to 43±7 and 49±6 on days two and six, respectively. The corresponding values of plasma activity towards GPPaba in the control group averaged 18±7 nMol/min/ml while the septic titer rose to 55±17 and 30±6 on days two and six, respectively. A “sham” breath test using 1.5 mg/kg administration of L-2-aminobutyric[1-^13C] acid in saline on day 3 of the experiment confirmed that oxidation of the release tag was similar in control and test groups, affording a cumulative oxidation of 65±8.3 and 72±9.4 per cent of dose recovery in 3 hours, respectively.

thrombin and plasmin = experiment: net coagulant potential (NCP) in whole blood, septic rat model; assay type: biochemical
thrombin = molecular target: T4, thrombin (Rattus norvegicus, UniProt P18292); experiment: thrombin metaprobe hydrolysis in whole blood, septic rat model; assay type: biochemical
T4 construct: from tissue; host or cells: unfractionated whole blood of control and septic rats

Aminopeptidase P (APP) [2] = settings: Human BAL
Aminopeptidase P (APP) [3] = settings: Rat Plasma
[4] = sham breath test with free core tracer in septic rat model; assay type: in vivo, Sprague-Dawley rats; settings: 1.5 mg/kg in saline, day 3, in 3 hours
Protocol: as §4

[5] = molecular target: T5, Dipeptidyl Peptidase IV (DPPIV/CD26) (Rattus norvegicus, UniProt P14740); experiment: DPPIV metaprobe breath test in the septic rat; assay type: in vivo, Sprague-Dawley rats; settings: 3.5 mg/kg injected
T5 construct: from tissue; host or cells: whole rat in vivo (injected dose, 13CO2 collection)
T5 sequence (P14740 whole entry): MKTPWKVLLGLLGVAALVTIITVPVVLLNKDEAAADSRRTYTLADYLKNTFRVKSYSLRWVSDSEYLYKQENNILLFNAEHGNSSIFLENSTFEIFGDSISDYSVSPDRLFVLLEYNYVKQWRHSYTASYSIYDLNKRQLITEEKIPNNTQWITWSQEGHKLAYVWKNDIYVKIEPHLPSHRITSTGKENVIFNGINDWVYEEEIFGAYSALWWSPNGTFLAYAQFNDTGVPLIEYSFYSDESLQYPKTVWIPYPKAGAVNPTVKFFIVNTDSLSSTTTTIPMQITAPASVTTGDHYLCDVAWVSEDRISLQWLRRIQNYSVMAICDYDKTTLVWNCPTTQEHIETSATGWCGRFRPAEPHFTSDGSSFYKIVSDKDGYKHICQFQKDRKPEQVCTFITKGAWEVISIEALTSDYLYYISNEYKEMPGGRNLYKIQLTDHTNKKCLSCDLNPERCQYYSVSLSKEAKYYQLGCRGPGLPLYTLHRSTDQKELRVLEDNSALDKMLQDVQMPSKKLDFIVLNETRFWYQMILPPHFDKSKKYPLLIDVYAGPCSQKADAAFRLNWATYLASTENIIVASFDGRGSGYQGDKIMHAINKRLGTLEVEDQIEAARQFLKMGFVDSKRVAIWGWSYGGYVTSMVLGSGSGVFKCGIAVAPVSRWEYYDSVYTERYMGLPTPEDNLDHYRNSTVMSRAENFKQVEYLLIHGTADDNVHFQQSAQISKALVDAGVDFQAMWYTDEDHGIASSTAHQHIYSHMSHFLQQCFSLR
Protocol: as §2, §3

[6] = molecular target: T6, Dipeptidyl peptidase IV (DPPIV) (Sus scrofa, UniProt P22411); experiment: in-vitro Michaelis-Menten assay with dipeptidyl peptidase reference enzyme; assay type: biochemical; settings: read-out: apparent Km
T6 construct: purchased Sigma-Aldrich D7052
T6 sequence (P22411 whole entry): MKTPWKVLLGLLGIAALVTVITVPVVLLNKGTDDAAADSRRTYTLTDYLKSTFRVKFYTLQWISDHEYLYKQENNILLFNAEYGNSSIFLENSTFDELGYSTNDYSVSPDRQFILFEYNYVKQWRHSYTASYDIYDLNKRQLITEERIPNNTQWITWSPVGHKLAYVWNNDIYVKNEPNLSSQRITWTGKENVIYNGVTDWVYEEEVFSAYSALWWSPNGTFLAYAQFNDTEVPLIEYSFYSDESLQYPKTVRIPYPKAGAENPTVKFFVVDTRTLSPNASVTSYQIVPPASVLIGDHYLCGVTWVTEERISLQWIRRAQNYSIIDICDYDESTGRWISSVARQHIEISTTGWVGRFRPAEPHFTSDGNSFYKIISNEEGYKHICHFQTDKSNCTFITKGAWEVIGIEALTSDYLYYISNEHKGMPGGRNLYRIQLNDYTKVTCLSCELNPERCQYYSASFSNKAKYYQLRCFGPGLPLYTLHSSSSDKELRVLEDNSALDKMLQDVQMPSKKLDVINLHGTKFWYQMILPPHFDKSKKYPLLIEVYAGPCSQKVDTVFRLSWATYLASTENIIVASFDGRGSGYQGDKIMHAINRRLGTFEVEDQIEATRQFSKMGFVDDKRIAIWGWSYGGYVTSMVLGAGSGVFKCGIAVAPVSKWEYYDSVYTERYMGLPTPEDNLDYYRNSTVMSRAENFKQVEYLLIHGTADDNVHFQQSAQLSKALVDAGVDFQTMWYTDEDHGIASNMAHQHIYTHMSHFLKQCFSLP
Description: Dipeptidyl peptidase reference enzyme was purchased from Sigma-Aldrich (D7052) and assayed by the standard Michaelis-Menten method described in similar studies by Barth and co-workers (Heins, et al.; Rahfeld, et al.). […] Hydrolysis of the latter was quantitated by isotope dilution GC/MS of the N-trifluoroacetyl-propyl ester, using L-2-aminobutyric[^2H5] acid as the internal standard.

plasmin = molecular target: T7, plasmin (Rattus norvegicus, UniProt Q01177); experiment: plasmin metaprobe hydrolysis in whole blood, septic rat model; assay type: biochemical
T7 construct: from tissue; host or cells: unfractionated whole blood of control and septic rats
T7 sequence (Q01177 582-812 limits assumed): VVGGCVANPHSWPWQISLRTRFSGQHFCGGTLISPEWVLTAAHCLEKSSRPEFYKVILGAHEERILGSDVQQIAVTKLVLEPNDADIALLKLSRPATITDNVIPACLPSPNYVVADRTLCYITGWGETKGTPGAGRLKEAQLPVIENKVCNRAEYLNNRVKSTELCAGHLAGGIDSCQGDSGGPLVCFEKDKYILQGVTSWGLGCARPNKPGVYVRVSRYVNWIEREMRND
T7 sequence (Q01177 97-581 limits assumed): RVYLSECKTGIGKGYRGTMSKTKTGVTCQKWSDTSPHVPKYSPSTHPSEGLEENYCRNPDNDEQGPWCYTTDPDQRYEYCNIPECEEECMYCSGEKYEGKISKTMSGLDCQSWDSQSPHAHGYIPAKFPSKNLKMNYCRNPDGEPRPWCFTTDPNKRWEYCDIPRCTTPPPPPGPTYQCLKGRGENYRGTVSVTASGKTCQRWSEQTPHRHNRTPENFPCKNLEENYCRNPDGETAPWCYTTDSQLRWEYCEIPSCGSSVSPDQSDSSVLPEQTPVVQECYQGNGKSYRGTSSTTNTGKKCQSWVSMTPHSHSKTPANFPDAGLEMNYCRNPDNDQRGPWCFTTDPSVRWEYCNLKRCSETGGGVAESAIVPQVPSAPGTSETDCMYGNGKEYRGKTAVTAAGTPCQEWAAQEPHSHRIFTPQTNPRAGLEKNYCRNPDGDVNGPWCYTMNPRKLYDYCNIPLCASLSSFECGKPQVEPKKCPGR

[7] = control group, average over the 7 day experiment

Compound: CCO[13C](=O)[C@H](CC)NC(=O)[C@H](CCCNC(=N)N)NC(=O)[C@@H]1CCCN1C(=O)[C@@H](Cc1ccccc1)NC(C)=O [Substrate II, N-acetyl-d-phenylalanyl-L-prolyl-L-arginyl-L-2-aminobutyric[1-^13C] acid, ethyl ester]
Product formed, Plasmin (bovine plasmin): 2.3 nmol/min/mL
Product formed, Thrombin (bovine thrombin): 6.9 nmol/min/mL

Compound: CCO[13C](=O)c1ccc(NC(=O)[C@H](CCCNC(=N)N)NC(=O)[C@@H]2CCCN2C(=O)[C@@H](Cc2ccccc2)NC(C)=O)cc1 [Substrate I, N-acetyl-d-phenylalanyl-L-prolyl-L-arginyl-p-aminobenzoic[1-^13C] acid, ethyl ester]
Product formed, Plasmin (bovine plasmin): 1.8 nmol/min/mL
Product formed, Thrombin (bovine thrombin): 6.0 nmol/min/mL

Compound: N[C@@H](CCCN=C([15NH2])[15NH2])C(=O)O [L-arginine[guanidino-^15N2]]
NOPI2 on Admission ([1]; 2 day average in ICU, rapid recovery, no sepsis, n = 4): 0.3 +/− 0.14 (n = 4)
NOPI2 on Admission ([1]; 4 day average in ICU, recovery, sepsis treated successfully, n = 4): 2.99 +/− 1.24 (n = 4)
NOPI2 on Admission ([1]; 7 day average in ICU, death from complications of sepsis and trauma, n = 3): 6.64 +/− 1.92 (n = 3)
NOPI2 on Admission ([1]; Normal Control, healthy (not admitted), n = 4): 0.2 +/− 0.15 (n = 4)

specific activity of plasma towards substrate (DPPIV; [7]): 18 ± 7 nmol/min/mL
specific activity of plasma towards substrate (DPPIV; septic, day six): 30 ± 6 nmol/min/mL
specific activity of plasma towards substrate (DPPIV; septic, day two): 55 ± 17 nmol/min/mL
Compound: gylcyl-prolyl-p-aminobenzoic[1-^13C] acid [GPPaba]

Compound: CCO[13C](=O)[C@H](CC)NC(=O)[C@H](CCCNC(=N)N)NC(=O)[C@@H]1CCCN1C(=O)CNC(C)=O [Substrate IV, N-acetyl-glycyl-L-prolyl-L-arginyl-L-2-aminobutyric[1-^13C] acid, ethyl ester]
Product formed, Plasmin (bovine plasmin): 3.1 nmol/min/mL
NCP, net coagulant potential (difference between metaprobe IV and VI) (thrombin and plasmin; Control, Day 0): 11 ± 10%
NCP, net coagulant potential (difference between metaprobe IV and VI) (thrombin and plasmin; Septic, Day 2): 62 ± 17%
NCP, net coagulant potential (difference between metaprobe IV and VI) (thrombin and plasmin; Septic, Day 6): −13 ± 21%
NCP, net coagulant potential (difference between metaprobe IV and VI) (thrombin and plasmin; Septic, Day 10): 2 ± 15%
Percent of Metaprobe Dose Metabolized (thrombin; Control, Day 0): 22 ± 9%
Percent of Metaprobe Dose Metabolized (thrombin; Septic, Day 2): 76 ± 15%
Percent of Metaprobe Dose Metabolized (thrombin; Septic, Day 6): 39 ± 12%
Percent of Metaprobe Dose Metabolized (thrombin; Septic, Day 10): 25 ± 10%
Product formed, Thrombin (bovine thrombin): 7.8 nmol/min/mL

% Dose metabolized (Aminopeptidase P (APP) [2]; Control, two hour incubation at 37° C.): 22 ± 4 % Dose
% Dose metabolized (Aminopeptidase P (APP) [2]; Test sample, ARDS): 44 ± 14 % Dose
% Dose metabolized (Aminopeptidase P (APP) [3]; Control): 5 ± 4 % Dose
% Dose metabolized (Aminopeptidase P (APP) [3]; Test sample, Sepsis): 28 ± 7 % Dose
Compound: CCOC(=O)[C@@H]1CCCN1C(=O)[C@@H]1CCCN1[13C](=O)CN [Aminopeptidase P Metaprobe, glycyl[1-^13C]-L-prolyl-L-proline, ethyl ester]

Compound: CCO[13C](=O)c1ccc(NC(=O)[C@H](CCCCN)NC(=O)[C@H](CC(C)C)NC(=O)[C@@H](N)CC(C)C)cc1 [Substrate V, L-leucyl-L-leucyl-L-lysyl-p-aminobenzoic[1-^13C] acid, ethyl ester]
Product formed, Plasmin (bovine plasmin): 7.2 nmol/min/mL
Product formed, Thrombin (bovine thrombin): 0.3 nmol/min/mL

cumulative oxidation, per cent of dose recovery ([4]; control group): 65±8.3 per cent of dose
cumulative oxidation, per cent of dose recovery ([4]; test (septic) group): 72±9.4 per cent of dose
Compound: CC[C@H](N)[13C](=O)O [L-2-aminobutyric[1-^13C] acid]

Cumulative Per Cent of Dose Exhaled in 3 Hours ([5]; Day 1, CONTROL): 4.3 (± 0.8) Per Cent of Dose
Cumulative Per Cent of Dose Exhaled in 3 Hours ([5]; Day 1, SEPSIS): 5.7 (± 1.4) Per Cent of Dose
Cumulative Per Cent of Dose Exhaled in 3 Hours ([5]; Day 2, CONTROL): 8.9 (± 1.3) Per Cent of Dose
Cumulative Per Cent of Dose Exhaled in 3 Hours ([5]; Day 2, SEPSIS): 22.5 (± 5.3) Per Cent of Dose
Cumulative Per Cent of Dose Exhaled in 3 Hours ([5]; Day 6, CONTROL): 4.9 (± 0.8) Per Cent of Dose
Cumulative Per Cent of Dose Exhaled in 3 Hours ([5]; Day 6, SEPSIS): 9.2 (± 6.3) Per Cent of Dose
Compound: CC[C@H](NC(=O)[C@@H]1CCCN1C(=O)CN)[13C](=O)O [GPA, glycyl-prolyl-2-aminobutyric[1-^13C] acid]

Km [6]: 200 µM
Compound: CC[C@H](NC(=O)[C@@H]1CCCN1C(=O)CN)C(=O)O [GPA, glycyl-prolyl-2-aminobutyric[1-^13C] acid] (H-Gly-Pro-[Abu]-OH)

Km [6]: 130 µM
specific activity of plasma towards substrate (DPPIV; [7]): 29 ± 6 nmol/min/mL
specific activity of plasma towards substrate (DPPIV; septic, day six): 49 ± 6 nmol/min/mL
specific activity of plasma towards substrate (DPPIV; septic, day two): 43 ± 7 nmol/min/mL
Compound: NCC(=O)N1CCC[C@H]1C(=O)Nc1ccc([N+](=O)[O-])cc1 [GP4NA, Glycyl-Prolyl-4-nitro-anilide, reference compound] (H-Gly-Pro-pNA)

Compound: CCO[13C](=O)[C@H](CC)NC(=O)[C@H](CCCCN)NC(=O)[C@H](CC(C)C)NC(=O)[C@@H](N)CC(C)C [Substrate VI, L-leucyl-L-leucyl-L-lysyl-L-2-aminobutyric[1-^13C] acid, ethyl ester]
Product formed, Plasmin (bovine plasmin): 8.1 nmol/min/mL
Percent of Metaprobe Dose Metabolized (plasmin; Control, Day 0): 11 ± 5%
Percent of Metaprobe Dose Metabolized (plasmin; Septic, Day 2): 14 ± 7%
Percent of Metaprobe Dose Metabolized (plasmin; Septic, Day 6): 52 ± 17%
Percent of Metaprobe Dose Metabolized (plasmin; Septic, Day 10): 23 ± 12%
Product formed, Thrombin (bovine thrombin): 0.4 nmol/min/mL

Compound: CCO[13C](=O)c1ccc(NC(=O)C(CCCNC(=N)N)NC(=O)C2CCCN2C(=O)CNC(C)=O)cc1 [Substrate III, N-acetyl-glycyl-L-prolyl-L-arginyl-p-aminobenzoic[1-^13C] acid, ethyl ester]
Product formed, Plasmin (bovine plasmin): 3.6 nmol/min/mL
Product formed, Thrombin (bovine thrombin): 6.6 nmol/min/mL
